DBAASP
≈ marks a conversion by molar mass, not a printed value. Values belong to the compound of their own block, whether it stands above or below them.

Columns and labels:
Test in all cases: ≥ marks a high value that may be exact or a test limit, other limits are often not marked, values filed in µg/mL are converted to µM
Candida albicans SC5314 = test system: Candida albicans SC5314
[1] = test system: Candida parapsilosis ATCC 22019
[2] = test system: Candida tropicalis ATCC 13803
[3] = test system: Bacillus subtilis CMCC 63501
[4] = test system: Staphylococcus epidermidis ATCC 12228
[5] = test system: Salmonella typhimurium ATCC 7731
[6] = test system: Pseudomonas aeruginosa PAO1
[7] = test system: Salmonella enterica subsp. enterica serovar Typhimurium ATCC 14028
[8] = test system: Enterococcus faecalis ATCC 29212
Escherichia coli UB1005 = test system: Escherichia coli UB1005
[9] = test system: Pseudomonas aeruginosa ATCC 27853
Candida krusei ATCC 6258 = test system: Candida krusei ATCC 6258
[10] = test system: Candida albicans ATCC 90028
Serratia marcescens = test system: Serratia marcescens
Candida albicans = test system: Candida albicans
Streptococcus mutans = test system: Streptococcus mutans
Saccharomyces cerevisiae = test system: Saccharomyces cerevisiae
[11] = test system: Salmonella enterica subsp. enterica serovar Enteritidis ATCC 13076
[12] = test system: Saccharomyces cerevisiae ATCC 44774
Cryptococcus neoformans = test system: Cryptococcus neoformans
[13] = test system: Escherichia coli ATCC 27325
Escherichia coli = test system: Escherichia coli
Salmonella typhimurium = test system: Salmonella typhimurium
[14] = test system: Pseudomonas putida ATCC 17426
[15] = test system: Staphylococcus aureus ATCC 15752
[16] = test system: Streptococcus mutans ATCC 25175
Staphylococcus aureus = test system: Staphylococcus aureus
[17] = test system: Candida albicans ATCC 10231
Bacillus subtilis = test system: Bacillus subtilis
Streptococcus pneumoniae = test system: Streptococcus pneumoniae
Pseudomonas putida = test system: Pseudomonas putida
[18] = test system: Cryptococcus neoformans ATCC 34881
[19] = test system: Bacillus subtilis ATCC 62037
Escherichia coli K88 = test system: Escherichia coli K88
[20] = test system: Escherichia coli ATCC 25922
[21] = test system: Staphylococcus aureus ATCC 25923
[22] = test system: Staphylococcus aureus ATCC 29213
[23] = test system: Salmonella enterica subsp. enterica serovar Typhimurium C77-31
Escherichia coli 078 = test system: Escherichia coli 078
[24] = test system: Salmonella enterica subsp. enterica serovar Pullorum C79-13
Escherichia coli K99 = test system: Escherichia coli K99
[25] = test system: Staphylococcus aureus ATCC 43300

SMILES: NCCCC[C@H](NC(=O)[C@@H](N)CS)C(=O)N[C@@H](Cc1ccc(O)cc1)C(=O)N[C@@H](CCCN=C(N)N)C(=O)N[C@@H](Cc1c[nH]c2ccccc12)C(=O)N[C@@H](CCCN=C(N)N)C(=O)O [CKYRWR]
MIC (Candida albicans SC5314): ≥ 439 µM
MIC [1]: ≥ 220 µM
MIC [2]: ≥ 220 µM

SMILES: CC[C@H](C)[C@H](NC(=O)[C@H](CCCN=C(N)N)NC(=O)[C@@H](N)Cc1ccccc1)C(=O)N[C@@H](CCCN=C(N)N)C(=O)N[C@H](C(=O)N[C@@H](CCCN=C(N)N)C(=O)N[C@H](C(N)=O)C(C)C)C(C)C [FRIRVRV]
MIC [3]: 16 µM (≈ 15.1 µg/mL)
MIC [4]: 32 µM (≈ 30.2 µg/mL)
MIC [5]: ≥ 32 µM
MIC [6]: 32 µM (≈ 30.2 µg/mL)
MIC [7]: 16 µM (≈ 15.1 µg/mL)
MIC [8]: 32 µM (≈ 30.2 µg/mL)
MIC (Escherichia coli UB1005): ≥ 32 µM
MIC [9]: 16 µM (≈ 15.1 µg/mL)

SMILES: CC(C)C[C@H](NC(=O)CNC(=O)[C@H](C)NC(=O)[C@@H](N)CCCN=C(N)N)C(=O)N[C@@H](CCC(N)=O)C(=O)N[C@@H](Cc1ccccc1)C(=O)N1CCC[C@H]1C(=O)N[C@H](C(=O)NCC(=O)N[C@@H](CCCN=C(N)N)C(=O)N[C@@H](CC(C)C)C(=O)N[C@@H](CC(C)C)C(=O)N[C@@H](CCCN=C(N)N)C(=O)N[C@@H](CCCN=C(N)N)C(=O)N[C@@H](CC(C)C)C(=O)N[C@@H](CC(C)C)C(=O)N[C@@H](CCCN=C(N)N)C(=O)N[C@@H](CCCN=C(N)N)C(=O)N[C@@H](CC(C)C)C(=O)N[C@@H](CC(C)C)C(=O)N[C@@H](CCCN=C(N)N)C(=O)O)C(C)C [RAGLQFPVGRLLRRLLRRLLR]
MIC (Serratia marcescens): 0.391 µM (≈ 1 µg/mL)
MIC (Candida albicans): 0.781 µM (≈ 2 µg/mL)
MIC (Streptococcus mutans): 0.195 µM (≈ 0.5 µg/mL)
MIC (Saccharomyces cerevisiae): 1.56 µM (≈ 4 µg/mL)
MIC [11]: 0.781 µM (≈ 2 µg/mL)
MIC [12]: 0.781 µM (≈ 2 µg/mL)
MIC (Cryptococcus neoformans): 0.391 µM (≈ 1 µg/mL)
MIC [13]: 0.391 µM (≈ 1 µg/mL)
MIC (Escherichia coli): 0.391 µM (≈ 1 µg/mL)
MIC (Salmonella typhimurium): 0.391 µM (≈ 1 µg/mL)
MIC [14]: 0.781 µM (≈ 2 µg/mL)
MIC [15]: 0.781 µM (≈ 2 µg/mL)
MIC [16]: 0.781 µM (≈ 2 µg/mL)
MIC (Staphylococcus aureus): 0.391 µM (≈ 1 µg/mL)
MIC [17]: 0.391 µM (≈ 1 µg/mL)
MIC (Bacillus subtilis): 0.391 µM (≈ 1 µg/mL)
MIC (Streptococcus pneumoniae): 0.391 µM (≈ 1 µg/mL)
MIC (Pseudomonas putida): 0.781 µM (≈ 2 µg/mL)
MIC [18]: 0.781 µM (≈ 2 µg/mL)
MIC [19]: 0.391 µM (≈ 1 µg/mL)

SMILES: CC(C)C[C@H](NC(=O)CNC(=O)[C@H](CCCCN)NC(=O)[C@@H](N)CCCN=C(N)N)C(=O)N[C@@H](CCC(N)=O)C(=O)N[C@@H](CCCCN)C(=O)N[C@@H](CC(C)C)C(=O)N[C@H](C(=O)NCC(=O)N[C@@H](CCCN=C(N)N)C(=O)N[C@H](C(=O)N[C@@H](Cc1cnc[nH]1)C(=O)N[C@@H](CCCN=C(N)N)C(=O)N[C@@H](CC(C)C)C(=O)N[C@@H](CC(C)C)C(=O)N[C@@H](CCCN=C(N)N)C(=O)N[C@@H](CCCCN)C(=O)O)C(C)C)C(C)C [RKGLQKLVGRVHRLLRK]
MIC (Serratia marcescens): 15.6 µM (≈ 32 µg/mL)
MIC (Candida albicans): 7.78 µM (≈ 16 µg/mL)
MIC (Streptococcus mutans): 15.6 µM (≈ 32 µg/mL)
MIC (Saccharomyces cerevisiae): 1.94 µM (≈ 4 µg/mL)
MIC (Cryptococcus neoformans): 3.89 µM (≈ 8 µg/mL)
MIC (Escherichia coli): 7.78 µM (≈ 16 µg/mL)
MIC (Salmonella typhimurium): 1.94 µM (≈ 4 µg/mL)
MIC (Staphylococcus aureus): 7.78 µM (≈ 16 µg/mL)
MIC (Bacillus subtilis): 7.78 µM (≈ 16 µg/mL)
MIC (Streptococcus pneumoniae): 7.78 µM (≈ 16 µg/mL)
MIC (Pseudomonas putida): 7.78 µM (≈ 16 µg/mL)

Other lines, results leading:

MIC (Candida albicans SC5314): ≥ 34.8 µM
MIC [1]: ≥ 34.8 µM
MIC (Candida krusei ATCC 6258): ≥ 34.8 µM
MIC [10]: ≥ 69.5 µM
SMILES: CC[C@H](C)[C@H](NC(=O)[C@@H](NC(=O)CN)C(C)C)C(=O)N[C@@H](CCCCN)C(=O)N[C@@H](C)C(=O)N[C@@H](C)C(=O)N[C@@H](CCCCN)C(=O)N[C@@H](CCCCN)C(=O)N[C@H](C(=O)N[C@H](C(=O)N[C@@H](CC(N)=O)C(=O)N[C@H](C(=O)N[C@@H](CC(C)C)C(=O)N[C@@H](CCCCN)C(=O)N[C@@H](CC(N)=O)C(=O)N[C@@H](CC(C)C)C(=O)N[C@@H](Cc1ccccc1)C(N)=O)C(C)C)C(C)C)C(C)C [GVIKAAKKVVNVLKNLF]

MIC [3]: 1 µM (≈ 1.69 µg/mL)
MIC [4]: 4 µM (≈ 6.74 µg/mL)
MIC [7]: 2 µM (≈ 3.37 µg/mL)
MIC (Escherichia coli K88): 2 µM (≈ 3.37 µg/mL)
MIC [20]: 2 µM (≈ 3.37 µg/mL)
MIC [21]: 2 µM (≈ 3.37 µg/mL)
MIC [8]: 2 µM (≈ 3.37 µg/mL)
MIC [22]: 4 µM (≈ 6.74 µg/mL)
MIC [23]: 4 µM (≈ 6.74 µg/mL)
MIC (Escherichia coli UB1005): 1 µM (≈ 1.69 µg/mL)
MIC (Escherichia coli 078): 2 µM (≈ 3.37 µg/mL)
MIC [24]: 1 µM (≈ 1.69 µg/mL)
MIC (Escherichia coli K99): 2 µM (≈ 3.37 µg/mL)
SMILES: CC[C@H](C)[C@H](NC(=O)[C@H](Cc1c[nH]c2ccccc12)NC(=O)[C@H](CCCCN)NC(=O)[C@H](Cc1c[nH]c2ccccc12)NC(=O)[C@@H](NC(=O)[C@H](Cc1c[nH]c2ccccc12)NC(=O)CNC(=O)[C@@H](NC(=O)[C@H](CCCCN)NC(=O)[C@H](CCCCN)NC(=O)[C@H](Cc1c[nH]c2ccccc12)NC(=O)[C@@H](N)CCCN=C(N)N)[C@@H](C)CC)C(C)C)C(N)=O [RWKKIGWVWKWI]

MIC [3]: ≥ 64 µM
MIC [4]: 128 µM (≈ 273 µg/mL)
MIC [5]: ≥ 32 µM
MIC [20]: 8 µM (≈ 17 µg/mL)
MIC [22]: 128 µM (≈ 273 µg/mL)
MIC (Escherichia coli UB1005): 8 µM (≈ 17 µg/mL)
MIC [25]: 128 µM (≈ 273 µg/mL)
MIC [24]: 16 µM (≈ 34.1 µg/mL)
MIC [9]: 16 µM (≈ 34.1 µg/mL)
SMILES: CC(C)C[C@H](NC(=O)[C@H](CCCCN)NC(=O)[C@H](CCCCN)NC(=O)[C@H](C)NC(=O)[C@@H](NC(=O)[C@H](CCCCN)NC(=O)[C@H](CO)NC(=O)[C@H](CC(C)C)NC(=O)[C@H](Cc1c[nH]c2ccccc12)NC(=O)[C@H](CC(C)C)NC(=O)[C@H](CCCCN)NC(=O)[C@H](CCCCN)NC(=O)[C@H](C)NC(=O)[C@@H](NC(=O)[C@H](CCCCN)NC(=O)[C@H](CO)NC(=O)[C@H](CC(C)C)NC(=O)[C@@H](N)Cc1c[nH]c2ccccc12)[C@@H](C)O)[C@@H](C)O)C(N)=O [WLSKTAKKLWLSKTAKKL]
